≈ marks a conversion by molar mass, not a printed value. Numbered stars: 1 amine (or outer) side, 2 acyl side, 3 side chain; on linkers, the order of the positions; unused ones are H or OH. Square brackets hold non-standard residues; d marks the D form. Peptide text beside a SMILES is read from it. * marks the point of attachment. ξ: configuration not given here. boroAla((+)-pinanediol) = C[C@H](N*)B1O[C@@H]2C[C@@H]3C[C@@H](C3(C)C)[C@]2(C)O1; Biphenylcarbonyl(4'-Bu) = CCCCc1ccc(-c2ccc(C(=O)*)cc2)cc1; X1 = C[C@H](N*)B1OC2C[C@@H]3C[C@@H](C3(C)C)[C@]2(C)O1; ξPro(4S-NH2) = O=C(C1C[C@H](N[*:3])CN1[*:1])[*:2]; X16 = CC(C)(C)c1ccc(-c2ccc(C(=O)*)cc2)cc1; Dopa = N[C@@H](Cc1ccc(O)c(O)c1)C(=O)O; NMeV = CN[C@H](C(=O)O)C(C)C; boroAla = C[C@H](N*)B(O)O; Orn = NCCC[C@H](N)C(=O)O; Dab = NCC[C@H](N)C(=O)O; Dap = NC[C@H](N)C(=O)O; Ac3c = NC1(C(=O)O)CC1; βAla = NCCC(=O)O
Key:
[1] = system: methicillin resistant Staphylococcus aureus (MRSA) strain USA300 (NRS384); details: Method B, 35° C., 22 hours
[2] = system: Escherichia coli strain MC4100 IMP-4213, which harbors an LptD mutation; details: Method B; E. coli MC4100 IMP-4213 (LptD mutation); 35° C., 22 hours
Experimental: In vitro antimicrobial activity of each compound was determined by measuring minimal inhibitor concentrations (MICs) using the broth micro-dilution technique as approved by the Clinical and Laboratory Standards Institute (CLSI). […] Bacterial inocula were prepared by scraping cells into 1 mL of testing media (cation adjusted Mueller Hinton Broth supplemented with 0.002% v/v Tween-80) and diluting to a final OD600 nm of 0.01.
Test compounds were prepared in DMSO at a concentration of 10 mg/ml. […] Bacterial inocula were added to the two fold serial dilutions of test compounds to a final density of OD OD600 nm of 0.0005 and incubated stationarily at 35° C. for 22 hours, after which the plates were examined visually.

E. coli SPase = E. coli SPase (Escherichia coli, UniProt P00803); experiment: Biochemical SPase activity assay (fluorogenic peptide substrate), E. coli enzyme
S. aureus SPase = S. aureus SPase (Staphylococcus aureus, UniProt P0A070); experiment: biochemical

| Compound | MIC (μg/mL) S. aureus [1] [µg/mL] | MIC (μg/mL) E. coli [2] [µg/mL] | IC50 (E. coli SPase) [µM] | IC50 (S. aureus SPase) [µM] |
| --- | --- | --- | --- | --- |
| CCCCc1ccc(-c2ccc(C(=O)N[C@@H](CN)C(=O)N[C@@H](CCCCN)C(=O)N[C@@H](C)C(=O)N[C@@H](CCCCN)C(=O)N[C@@H](C)B(O)O)cc2)cc1 [Compound 186] ({Biphenylcarbonyl(4'-Bu)}-[Dap]KAK-boroAla) | 0.13 (≈ 0.176 µM) | 0.13 (≈ 0.176 µM) | 0.0069 | 0.37 |
| CCCCc1ccc(-c2ccc(C(=O)N3CCC(C(=O)N[C@H](C(=O)N[C@@H](C)C(=O)N[C@@H](CCCCN)C(=O)N[C@@H](C)B4O[C@@H]5C[C@@H]6C[C@@H](C6(C)C)[C@]5(C)O4)[C@@H](C)O)CC3)cc2)cc1 [Compound 272] | 0.71 (≈ 0.815 µM) | 32 (≈ 36.7 µM) | 1.3 | 0.05 |
| CCCCc1ccc(-c2ccc(C(=O)N[C@@H](CCCN)C(=O)N[C@H](C(=O)N[C@@H](C)C(=O)N[C@@H](CCCCN)C(=O)N[C@@H](C)B3OC4C[C@@H]5C[C@@H](C5(C)C)[C@]4(C)O3)[C@@H](C)O)cc2)cc1 (stereo partly shown) [Compound 142] ({Biphenylcarbonyl(4'-Bu)}-[Orn]TAK-X1) | 0.22 (≈ 0.252 µM) | 0.5 (≈ 0.572 µM) | 0.015 | 0.034 |
| C[C@H](NC(=O)[C@H](CCCCN)NC(=O)[C@H](C)NC(=O)[C@@H](NC(=O)[C@H](CCN)NC(=O)c1ccc(-c2ccc(C(C)(C)C)cc2)cc1)[C@@H](C)O)B1O[C@@H]2C[C@@H]3C[C@@H](C3(C)C)[C@]2(C)O1 [Compound 231] (X16-[Dab]TAK-{boroAla((+)-pinanediol)}) | 0.5 (≈ 0.581 µM) | 0.5 (≈ 0.581 µM) | 0.0045 | 0.095 |
| CCCCc1ccc(-c2ccc(C(=O)N[C@@H](CCN)C(=O)N[C@@H](Cc3ccc(O)c(O)c3)C(=O)N[C@@H](C)C(=O)N[C@@H](Cc3ccc(O)c(O)c3)C(=O)N[C@@H](C)B3OC4C[C@@H]5C[C@@H](C5(C)C)[C@]4(C)O3)cc2)cc1 (stereo partly shown) [Compound 189] ({Biphenylcarbonyl(4'-Bu)}-[Dab][Dopa]A[Dopa]-X1) | >64 | 64 (≈ 64.7 µM) | 0.43 | 7.7 |
| CCCCc1ccc(-c2ccc(C(=O)N[C@@H](CCCCN)C(=O)N[C@@H](CCC(=O)O)C(=O)N[C@@H](C)C(=O)N[C@@H](CCCCN)C(=O)N[C@@H](C)B3O[C@@H]4C[C@@H]5C[C@@H](C5(C)C)[C@]4(C)O3)cc2)cc1 [Compound 151] ({Biphenylcarbonyl(4'-Bu)}-KEAK-{boroAla((+)-pinanediol)}) | 0.71 (≈ 0.775 µM) | 1.2 (≈ 1.31 µM) | 0.0088 | 0.038 |
| CCCCc1ccc(-c2ccc(C(=O)N[C@@H](CCCCN)C(=O)N[C@@H](CCC(=O)OCC)C(=O)N[C@@H](C)C(=O)N[C@@H](CCCCN)C(=O)N[C@@H](C)B3O[C@@H]4C[C@@H]5C[C@@H](C5(C)C)[C@]4(C)O3)cc2)cc1 [Compound 261] ({Biphenylcarbonyl(4'-Bu)}-KE(OEt)AK-{boroAla((+)-pinanediol)}) | 0.71 (≈ 0.752 µM) | 0.79 (≈ 0.837 µM) | 0.041 | 0.28 |
| CCCCc1ccc(-c2ccc(C(=O)N[C@@H](CCCCN)C(=O)NC3(C(=O)N[C@@H](C)C(=O)N[C@@H](CCCCN)C(=O)N[C@@H](C)B4OC5C[C@@H]6C[C@@H](C6(C)C)[C@]5(C)O4)CC3)cc2)cc1 (stereo partly shown) [Compound 137] ({Biphenylcarbonyl(4'-Bu)}-K[Ac3c]AK-X1) | 16 (≈ 18.4 µM) | 23 (≈ 26.4 µM) | 1.2 | 26 |
| CCCCc1ccc(-c2ccc(C(=O)NCCC(=O)N[C@@H](CCCCN)C(=O)N3CCC[C@H]3C(=O)N[C@@H](C)C(=O)N[C@@H](CC(N)=O)C(=O)N[C@@H](C)B(O)O)cc2)cc1 [Compound 220] ({Biphenylcarbonyl(4'-Bu)-βAla}-KPAN-boroAla) | 0.5 (≈ 0.62 µM) | 4 (≈ 4.96 µM) | 0.036 | 0.007 |
| CCCCc1ccc(-c2ccc(C(=O)N[C@H](CO)C(=O)N[C@H](C)C(=O)NCC(=O)N(C)[C@H](C(=O)N[C@@H](C)C(=O)N[C@@H](CC(N)=O)C(=O)N[C@@H](C)B3OC4C[C@@H]5C[C@@H](C5(C)C)[C@]4(C)O3)C(C)C)cc2)cc1 (stereo partly shown) [Compound 230] ({Biphenylcarbonyl(4'-Bu)}-[dS][dA]G[NMeV]AN-X1) | 2 (≈ 2.06 µM) | 20 (≈ 20.6 µM) | 0.39 | 0.15 |
| CCCCc1ccc(-c2ccc(C(=O)NCCC(=O)N[C@@H](CCCCN)C(=O)N[C@H](C(=O)N[C@@H](C)C(=O)NC3(C(=O)N[C@@H](C)B4OC5C[C@@H]6C[C@@H](C6(C)C)[C@]5(C)O4)CC3)[C@@H](C)O)cc2)cc1 (stereo partly shown) [Compound 219] ({Biphenylcarbonyl(4'-Bu)-βAla}-KTA[Ac3c]-X1) | 5 (≈ 5.47 µM) | 64 (≈ 70 µM) | 0.56 | 0.046 |
| CCCCc1ccc(-c2ccc(C(=O)NCCC(=O)N[C@@H](CCCCN)C(=O)N[C@H](C(=O)N[C@H](C(=O)N[C@@H](CC(N)=O)C(=O)N[C@@H](C)B3OC4C[C@@H]5C[C@@H](C5(C)C)[C@]4(C)O3)C(C)C)[C@@H](C)O)cc2)cc1 (stereo partly shown) [Compound 212] ({Biphenylcarbonyl(4'-Bu)-βAla}-KTVN-X1) | 0.84 (≈ 0.863 µM) | 5 (≈ 5.14 µM) | 0.026 | 0.012 |
| CCCCc1ccc(-c2ccc(C(=O)N[C@@H](Cc3c[nH]c4ccccc34)C(=O)N[C@H](C(=O)N[C@@H](C)C(=O)N[C@@H](CCCCN)C(=O)N[C@@H](C)B3OC4C[C@@H]5C[C@@H](C5(C)C)[C@]4(C)O3)[C@@H](C)O)cc2)cc1 (stereo partly shown) [Compound 138] ({Biphenylcarbonyl(4'-Bu)}-WTAK-X1) | 5 (≈ 5.29 µM) | >64 | 1 | 1.1 |
| CCCCc1ccc(-c2ccc(C(=O)N3C[C@@H](N)CC3C(=O)N[C@H](C(=O)N[C@@H](C)C(=O)N[C@@H](CC(N)=O)C(=O)N[C@@H](C)B3OC4C[C@@H]5C[C@@H](C5(C)C)[C@]4(C)O3)[C@@H](C)O)cc2)cc1 (stereo partly drawn) [Compound 139] ({Biphenylcarbonyl(4'-Bu)}-[ξPro(4S-NH2)]TAN-X1) | 1 (≈ 1.17 µM) | 2 (≈ 2.33 µM) | 0.0034 | 0.0085 |
| CCCCc1ccc(-c2ccc(OC(=O)N[C@@H](CCCCN)C(=O)N[C@H](C(=O)N[C@@H](C)C(=O)N[C@@H](CC(N)=O)C(=O)N[C@@H](C)B3OC4C[C@@H]5C[C@@H](C5(C)C)[C@]4(C)O3)[C@@H](C)O)cc2)cc1 (stereo partly shown) [Compound 262] | 2.8 (≈ 3.15 µM) | 8 (≈ 8.99 µM) | 0.037 | 0.015 |
| CCCCc1ccc(-c2ccc(C(=O)N[C@@H](CCN)C(=O)N[C@H](C(=O)N[C@@H](C)C(=O)N[C@@H](CCCCN)C(=O)N[C@@H](C)B3O[C@@H]4C[C@@H]5C[C@@H](C5(C)C)[C@]4(C)O3)[C@@H](C)O)cc2)cc1 [Compound 187] ({Biphenylcarbonyl(4'-Bu)}-[Dab]TAK-{boroAla((+)-pinanediol)}) | 8 (≈ 9.3 µM) | 2.8 (≈ 3.26 µM) | 0.17 | 2.1 |

Reference: patent US9708368B2, “Linear peptide antibiotics” (priority 2012, dated 2017)
